melting point [°C] | Compound
293 | CC(=O)Nc1ncc(C#Cc2cnn3c(C(F)(F)F)cc(-c4ccc(C(F)(F)F)cc4)nc23)cn1 [Example 245, N-{5-[7-Trifluoromethyl-5-(4-trifluoromethyl-phenyl)-pyrazolo[1,5-a]pyrimidin-3-ylethynyl]-pyrimidin-2-yl}-acetamide]
226 to 227 | CN(C)S(=O)(=O)c1ccc(C#Cc2cnn3c(C(F)(F)F)cc(-c4ccc(C(F)(F)F)cc4)nc23)cc1 [Example 121, N,N-Dimethyl-4-[7-trifluoromethyl-5-(4-trifluoromethyl-phenyl)-pyrazolo[1,5-a]pyrimidin-3-ylethynyl]-benzenesulfonamide]
186 to 188 | COCCNS(=O)(=O)c1cccc(C#Cc2cnn3c(C(F)(F)F)cc(-c4ccc(C(F)(F)F)cc4)nc23)c1 [Example 131, N-(2-Methoxy-ethyl)-3-[7-trifluoromethyl-5-(4-trifluoromethyl-phenyl)-pyrazolo[1,5-a]pyrimidin-3-ylethynyl]-benzenesulfonamide]
216 | Cc1cc(-c2cc(C(F)(F)F)n3ncc(C#Cc4ccc(S(N)(=O)=O)s4)c3n2)ccc1Cl [Example 114, 5-[5-(4-Chloro-3-methyl-phenyl)-7-trifluoromethyl-pyrazolo[1,5-a]pyrimidin-3-ylethynyl]-thiophene-2-sulfonic acid amide]
247 to 248 | Nc1ccc(C#Cc2cnn3c(C(F)(F)F)cc(-c4ccc(Cl)cc4)nc23)nn1 [Example 247, 6-[5-(4-Chloro-phenyl)-7-trifluoromethyl-pyrazolo[1,5-a]pyrimidin-3-ylethynyl]-pyridazin-3-ylamine]
144 to 145 | FC(F)(F)c1ccc(-c2cc(C(F)(F)F)n3ncc(C#Cc4ccccc4)c3n2)cc1 [Example 62, 3-Phenylethynyl-7-trifluoromethyl-5-(4-trifluoromethyl-phenyl)-pyrazolo[1,5-a]pyrimidine]
254 to 255 | NS(=O)(=O)c1cc(C#Cc2cnn3c(C(F)(F)F)cc(-c4ccc(C(F)(F)F)cc4)nc23)ccc1F [Example 50, 2-Fluoro-5-[7-trifluoromethyl-5-(4-trifluoromethyl-phenyl)-pyrazolo[1,5-a]pyrimidin-3-ylethynyl]-benzenesulfonamide]
261 to 263 | CS(=O)(=O)Nc1ccc(C#Cc2cnn3c(C(F)(F)F)cc(-c4ccc(C(F)(F)F)cc4)nc23)cn1 [Example 216, N-{5-[7-Trifluoromethyl-5-(4-trifluoromethyl-phenyl)-pyrazolo[1,5-a]pyrimidin-3-ylethynyl]-pyridin-2-yl}-methanesulfonamide]

The remaining lines, values behind:

Compound | melting point [°C]
Cc1cc(-c2cc(C(F)(F)F)n3ncc(C#Cc4ccc(S(=O)(=O)NCCN(C)C)s4)c3n2)ccc1Cl [Example 257, 5-[5-(4-Chloro-3-methyl-phenyl)-7-trifluoromethyl-pyrazolo[1,5-a]pyrimidin-3-ylethynyl]-thiophene-2-sulfonic acid (2-dimethylamino-ethyl)-amide] | 179
NS(=O)(=O)c1ccc(C#Cc2cnc3ccc(-c4ccc(C(F)(F)F)cc4)cn23)s1 [Example 217, 5-[6-(4-Trifluoromethyl-phenyl)-imidazo[1,2-a]pyridin-3-ylethynyl]-thiophene-2-sulfonic acid amide] | 206 to 210
Cc1cc(-c2ccc(Cl)cc2)cn2c(C#Cc3cncc(S(=O)(=O)NC(C)(C)CO)c3)cnc12 [Example 230, 5-[6-(4-Chloro-phenyl)-8-methyl-imidazo[1,2-a]pyridin-3-ylethynyl]-pyridine-3-sulfonic acid (2-hydroxy-1,1-dimethyl-ethyl)-amide] | 215 to 217
NS(=O)(=O)c1cccc(C#Cc2cnc3c(C(F)(F)F)cc(-c4ccc(C(F)(F)F)cc4)cn23)c1 [Example 194, 3-[8-Trifluoromethyl-6-(4-trifluoromethyl-phenyl)-imidazo[1,2-a]pyridin-3-ylethynyl]-benzenesulfonamide] | 240
Cc1cc(-c2cc(C(F)F)n3ncc(C#Cc4ccc(S(=O)(=O)NC(C)(C)CO)s4)c3n2)ccc1Cl [Example 175, 5-[5-(4-Chloro-3-methyl-phenyl)-7-difluoromethyl-pyrazolo[1,5-a]pyrimidin-3-ylethynyl]-thiophene-2-sulfonic acid (2-hydroxy-1,1-dimethyl-ethyl)-amide] | 145
CNS(=O)(=O)c1ccc(C#Cc2cnn3c(C(F)F)cc(-c4ccc(C(F)(F)F)cc4)nc23)cc1 [Example 138, 4-[7-difluoromethyl-5-(4-trifluoromethyl-phenyl)-pyrazolo[1,5-a]pyrimidin-3-ylethynyl]-N-methyl-benzenesulfonamide] | 202 to 203
CC(C)(CO)NS(=O)(=O)c1cccc(C#Cc2cnn3c(C4CC4)cc(-c4ccc(Cl)cc4)nc23)c1 [Example 65, 3-[5-(4-Chloro-phenyl)-7-cyclopropyl-pyrazolo[1,5-a]pyrimidin-3-ylethynyl]-N-(2-hydroxy-1,1-dimethyl-ethyl)-benzenesulfonamide] | 202 to 204
CN(C)CCNS(=O)(=O)c1ccc(C#Cc2cnn3c(C(F)F)cc(-c4ccc(C(F)(F)F)cc4)nc23)s1 [Example 253, 5-[7-Difluoromethyl-5-(4-trifluoromethyl-phenyl)-pyrazolo[1,5-a]pyrimidin-3-ylethynyl]-thiophene-2-sulfonic acid (2-dimethylamino-ethyl)-amide] | 132
O=S(=O)(Nc1cccnc1)c1ccc(C#Cc2cnn3c(C(F)F)cc(-c4ccc(C(F)(F)F)cc4)nc23)s1 [Example 281, 5-[7-Difluoromethyl-5-(4-trifluoromethyl-phenyl)-pyrazolo[1,5-a]pyrimidin-3-ylethynyl]-thiophene-2-sulfonic acid pyridin-3-ylamide] | 226
CC(C)(CO)NS(=O)(=O)c1ccc(C#Cc2cnn3c(C(F)F)cc(-c4cccc(C(F)(F)F)c4)nc23)s1 [Example 170, 5-[7-Difluoromethyl-5-(3-trifluoromethyl-phenyl)-pyrazolo[1,5-a]pyrimidin-3-ylethynyl]-thiophene-2-sulfonic acid (2-hydroxy-1,1-dimethyl-ethyl)-amide] | 168
CC(C)(CO)NS(=O)(=O)c1cncc(C#Cc2cnn3c(C4CC4)cc(-c4ccc(C(F)(F)F)cc4)nc23)c1 [Example 78, 5-[7-Cyclopropyl-5-(4-trifluoromethyl-phenyl)-pyrazolo[1,5-a]pyrimidin-3-ylethynyl]-pyridine-3-sulfonic acid (2-hydroxy-1,1-dimethyl-ethyl)-amide] | 190 to 191
O=S(=O)(c1ccc(C#Cc2cnn3c(C(F)F)cc(-c4cccc(C(F)(F)F)c4)nc23)s1)N(CCO)CCO [Example 264, 5-[7-Difluoromethyl-5-(3-trifluoromethyl-phenyl)-pyrazolo[1,5-a]pyrimidin-3-ylethynyl]-thiophene-2-sulfonic acid bis-(2-hydroxy-ethyl)-amide] | 174
Cc1ccc(C#Cc2cnn3c(C(F)F)cc(-c4ccc(C(F)(F)F)cc4)nc23)cc1S(=O)(=O)NCCO [Example 61, 5-[7-Difluoromethyl-5-(4-trifluoromethyl-phenyl)-pyrazolo[1,5-a]pyrimidin-3-ylethynyl]-N-(2-hydroxy-ethyl)-2-methyl-benzenesulfonamide] | 184 to 186

From patent US8063048B2, “Acetylenyl-pyrazolo-pyrimidine derivatives” (Hoffmann-La Roche Inc., priority 2005, dated 2011)
